Laboratory results: US20230165970A1, “COMPOSITIONS AND METHODS FOR THE TREATMENT OF BACTERIAL INFECTIONS” (priority 2017, published 2023)
≈ marks a conversion by molar mass, not a printed value. Like-named read-outs stand apart in the source and are kept apart here. *1 amine or outer side, *2 acyl side, *3 side chain or, on linkers, in order; H or OH if unused. Where a SMILES comes first, the peptide text is derived from it. Bridges are numbered along the chain shown (N, C = ends). Roman numbers before positions name the chains, in order. [ ]: non-standard residue; d: D form. The star is where a group is joined. ξ: configuration not given here. X8 = C#CCOCCOCCOCCOCCN1CCN(C2C[C@@H](C(=O)[*:1])[C@H](C(=O)[*:2])C2)CC1; X2 = O=C([C@@H](N[*:1])[C@H](O)CCC(F)(F)F)[*:2]; Propargyl(OCH2CH2)4CO = C#CCOCCOCCOCCOCCC(=O)*; Aoc(2) = CCCCCC[C@H](N)C(=O)O; hLeu = CC(C)CC[C@H](N)C(=O)O; X7 = NCCN(NC(=O)[*:2])[*:1]; Nle = CCCC[C@H](N)C(=O)O; ξF = NC(Cc1ccccc1)C(=O)O; Dab = NCC[C@H](N)C(=O)O; ξT = CC(O)C(N)C(=O)O; azaGly = NNC(=O)O

How the values were obtained:
[1] = test system: Ec 2469; format: cell-based, Escherichia coli
Procedure: (§1) Briefly, stock solutions of all antibacterial agents were prepared fresh in appropriate solvents (i.e. PBS, pH 7.4, DMSO, DI, etc.). Stock concentrations for drug conjugates were made at 12.5× the highest final assay concentration. All were serially diluted 2-fold, 8 or 12 times in a 96-well PCR plate (VWR cat. no. 83007-374). Bacterial cell suspensions generated from Mueller-Hinton agar (MHA) plate cultures were prepared in 0.85% saline and adjusted to ˜0.1 OD600 nm. […] For the conjugates, 92 μL of each cell suspension in RPMI B were added in the same 96-well plate assay format. […] Compounds were tested against a 14-strain panel comprised of E. coli (Ec), A. baumannii (Ab), P. aeruginosa (Pa), and K. pneumoniae (Kp) that were obtained from ATCC (Ec 25922, Ec 2489, Ab 19606, Pa 27853, Pa PAO1, Kp 43816, Kp 10031), Centers for Disease Control and Prevention (Ec AR0349), BEI Resources (Ab AB5075), Micromyx LLC (Ab 8990, Kp 6951), and Belgian Coordinated Collections of Microorganisms (Pa LES431) or generated in-house (Ec 25922 64X-1). […] E. coli strain ATCC 25922 and P. aeruginosa strain LES431 were run in the presence and absence of 50% heat-inactivated fetal bovine serum (FBS; Sigma, cat. no. F4135-100 mL). Plates were mixed by shaking then incubated at 35° C. overnight (16-20 h).

[2] = test system: Ec 25922; format: cell-based, Escherichia coli
Procedure: as §1

[3] = test system: Ab AB58705 (COL^R) IpxD, mut. (no LPS); format: cell-based, Acinetobacter baumannii; conditions: media CA-MHB
[4] = test system: Kp 43816; format: cell-based, Klebsiella pneumoniae
Procedure: as §1

[5] = test system: Kp 10031; format: cell-based, Klebsiella pneumoniae
Procedure: as §1

[6] = test system: Kp 6951 (COL^R); format: cell-based, Klebsiella pneumoniae; conditions: Kp 6951 (COL^R); media CA-MHB
Procedure: as §1

[7] = test system: Ec 25922 64X-1 (COL^R); format: cell-based, Escherichia coli; conditions: media CA-MHB
Procedure: (§2) Briefly, stock solutions of all antibacterial agents were prepared fresh in appropriate solvents (i.e. PBS, pH 7.4, DMSO, DI, etc.). Stock concentrations for drug conjugates were made at 12.5× the highest final assay concentration. All were serially diluted 2-fold, 8 or 12 times in a 96-well PCR plate (VWR cat. no. 83007-374). Bacterial cell suspensions generated from Mueller-Hinton agar (MHA) plate cultures were prepared in 0.85% saline and adjusted to ˜0.1 OD600 nm. Next, cell suspensions were diluted 1:200 in RPMI containing 5% Luria Broth (LB) to improve bacterial growth (BD Difco, cat. no. 244620) to a concentration of ˜5×10^5 CFU (colony-forming units)/mL. Due to poor solubility in Mueller-Hinton broth media, drug conjugates were evaluated in RPMI 1640 medium (+) L-glutamine, (+) sodium bicarbonate, pH 7.4 (“RPMI B”; Gibco, cat. no. 11875-085) as has been described as a more physiologically-relevant media for susceptibility testing of antibacterial compounds (1). For the conjugates, 92 μL of each cell suspension in RPMI B were added in the same 96-well plate assay format. […] Compounds were tested against a 14-strain panel comprised of E. coli (Ec), A. baumannii (Ab), P. aeruginosa (Pa), and K. pneumoniae (Kp) that were obtained from ATCC (Ec 25922, Ec 2489, Ab 19606, Pa 27853, Pa PAO1, Kp 43816, Kp 10031), Centers for Disease Control and Prevention (Ec AR0349), BEI Resources (Ab AB5075), Micromyx LLC (Ab 8990, Kp 6951), and Belgian Coordinated Collections of Microorganisms (Pa LES431) or generated in-house (Ec 25922 64X-1). […] E. coli strain ATCC 25922 and P. aeruginosa strain LES431 were run in the presence and absence of 50% heat-inactivated fetal bovine serum (FBS; Sigma, cat. no. F4135-100 mL). Plates were mixed by shaking then incubated at 35° C. overnight (16-20 h).

[8] = test system: Ec AR0349 (mcr-1, COL^R); format: cell-based, Escherichia coli; conditions: media CA-MHB
Procedure: as §2

[9] = test system: Ab 19606 (COLhet^R); format: cell-based, Acinetobacter baumannii; conditions: media CA-MHB
Procedure: as §2

[10] = test system: Sa RN; format: cell-based
[11] = test system: LPS from E. coli O111:B4; assay: LPS binding/neutralization by Limulus Amebocyte Lysate (LAL) assay; format: biochemical; conditions: LPS 1-10,000 ng/mL, test article 0.25-10 μM
Procedure: The LAL assay (Charles River) was used to determine the binding affinity of test articles to LPS.
(§3) For the assay, 25 μL purified LPS from E. coli O111:1B4 (Sigma) at doses ranging from 1-10,000 ng/mL were incubated with 25 μL of test article at concentrations ranging from 0.25-10 NM. After 5 min incubation at 37° C., 50 μL of LAL reagent, which reacts with lipid A portion from LPS, was added to corresponding wells. After 15 min, absorbance at 405 nm was read on EnSpire plate reader (Perkin Elmer). The % LPS neutralization is calculated relative to a PBS control (background) and LPS control at each concentration (positive control).
LPS neutralization=(1−(absorbance test article−PBS with LAL reagent)/(absorbance no test article−PBS with LAL reagent))×100
To obtain a single value of LPS neutralization for each test article, the area under the curve (AUC) for dose-response of test articles from […] for each LPS concentration was calculated using Prism 7 software. The % LPS neutralization is the sum of the AUCs for each LPS concentration determined relative to the maximal AUC achievable×100.
as §3, with “O111:B4” for “O111:1B4”, “μM.” for “NM.”

[12] = test system: Ab AB5075; format: cell-based, Acinetobacter baumannii
Procedure: as §1

[13] = test system: Ab 8990 (COL^R); format: cell-based, Acinetobacter baumannii; conditions: Ab 8990 (COL^R); media CA-MHB
Procedure: as §1

[14] = test system: Pa PAO1; format: cell-based, Pseudomonas aeruginosa
Procedure: as §1

[15] = test system: Pa LES431; format: cell-based, Pseudomonas aeruginosa
Procedure: as §1

[16] = test system: Pa 27853; format: cell-based, Pseudomonas aeruginosa
Procedure: as §1

SMILES: C#CCOCCOCCOCCOCCC(=O)N[C@@H](CCC(C)C)C(=O)N[C@@H](CCN)C(=O)N[C@H](C(=O)N(CCN)NC(=O)N[C@H]1CCNC(=O)[C@H]([C@@H](C)O)NC(=O)[C@H](CCN)NC(=O)[C@H](CCN)NC(=O)[C@H](CC(C)C)NC(=O)[C@@H](Cc2ccccc2)NC(=O)[C@H](CCN)NC1=O)[C@@H](C)O [Int-126] ({Propargyl(OCH2CH2)4CO}-[hLeu][Dab]T[X7][Dab][Dab][dF]L[Dab][Dab]T; lactam 5-C)
- MIC [1]: 0.5 µg/mL (≈ 0.349 µM)
- MIC [2]: 1 µg/mL (≈ 0.697 µM)
- MIC [3]: 64 µg/mL (≈ 44.6 µM)
- MIC [4]: 1 µg/mL (≈ 0.697 µM)
- MIC [5]: 1 µg/mL (≈ 0.697 µM)
- MIC [6]: >128 µg/mL
- MIC [7]: 64 µg/mL (≈ 44.6 µM)
- MIC [8]: 8 µg/mL (≈ 5.58 µM)
- MIC [9]: 4 µg/mL (≈ 2.79 µM)
- MIC [10]: >128 µg/mL
- % LPS neutralization ([11]; sum of AUCs relative to maximal AUC (Table 15)): 19.7%
- MIC [12]: 2 µg/mL (≈ 1.39 µM)
- MIC [13]: >128 µg/mL
- MIC ([14]; PAO1): 2 µg/mL (≈ 1.39 µM)
- MIC [15]: 4 µg/mL (≈ 2.79 µM)
- MIC [16]: 2 µg/mL (≈ 1.39 µM)

SMILES: C#CCOCCOCCOCCOCCN1CCN(C2C[C@@H](C(=O)N[C@@H](CCCC)C(=O)N[C@@H](CCN)C(=O)N[C@H](C(=O)NNC(=O)N[C@H]3CCNC(=O)[C@H]([C@@H](C)O)NC(=O)[C@H](CCN)NC(=O)[C@H](CCN)NC(=O)[C@H](CC(C)C)NC(=O)C(Cc4ccccc4)NC(=O)[C@H](CCN)NC3=O)[C@@H](C)O)[C@H](C(=O)N[C@@H](CCCC)C(=O)N[C@@H](CCN)C(=O)N[C@H](C(=O)NNC(=O)N[C@H]3CCNC(=O)C(C(C)O)NC(=O)[C@H](CCN)NC(=O)[C@H](CCN)NC(=O)[C@H](CC(C)C)NC(=O)[C@@H](Cc4ccccc4)NC(=O)[C@H](CCN)NC3=O)[C@@H](C)O)C2)CC1 (some centres unmarked) [Int-105] (I: [Nle][Dab]T[azaGly][Dab][Dab][dF]L[Dab][Dab][ξT] / II: [Nle][Dab]T[azaGly][Dab][Dab][ξF]L[Dab][Dab]T; lactam I:5-I:C, II:5-II:C; linker I:N-II:N via X8)
- MIC ([1]; Ec 2469, media CA-MHB): 2 µg/mL (≈ 0.744 µM)
- MIC ([2]; Ec 25922 + FBS (50%, heat-inactivated), media CA-MHB): 0.5 µg/mL
- MIC ([2]; Ec 25922, media CA-MHB): 2 µg/mL (≈ 0.744 µM)
- MIC ([4]; Kp 43816, media CA-MHB): 2 µg/mL (≈ 0.744 µM)
- MIC ([5]; Kp 10031, media CA-MHB): 2 µg/mL (≈ 0.744 µM)
- MIC [6]: 32 µg/mL (≈ 11.9 µM)
- MIC [7]: 4 µg/mL (≈ 1.49 µM)
- MIC [8]: 4 µg/mL (≈ 1.49 µM)
- MIC [9]: 2 µg/mL (≈ 0.744 µM)
- % LPS neutralization of TM ([11]; sum of AUCs relative to maximal AUC (Table 14)): 33.2%
- MIC ([12]; Ab AB5075, media CA-MHB): 2 µg/mL (≈ 0.744 µM)
- MIC [13]: >128 µg/mL
- MIC ([14]; Pa PAO1, media CA-MHB): 4 µg/mL (≈ 1.49 µM)
- MIC ([15]; Pa LES431 + FBS (50%, heat-inactivated), media CA-MHB): 16 µg/mL
- MIC ([15]; Pa LES431, media CA-MHB): 2 µg/mL (≈ 0.744 µM)
- MIC ([16]; Pa 27853, media CA-MHB): 4 µg/mL (≈ 1.49 µM)

SMILES: C#CCOCCOCCOCCOCCC(=O)N[C@@H](CCCCCC)C(=O)N[C@@H](CCN)C(=O)N[C@H](C(=O)NNC(=O)N[C@H]1CCNC(=O)[C@H]([C@@H](C)O)NC(=O)[C@H](CCN)NC(=O)[C@H](CCN)NC(=O)[C@H](CC(C)C)NC(=O)[C@@H](Cc2ccccc2)NC(=O)[C@H](CCN)NC1=O)[C@H](O)CCC(F)(F)F [Int-119] ({Propargyl(OCH2CH2)4CO}-[Aoc(2)][Dab][X2][azaGly][Dab][Dab][dF]L[Dab][Dab]T; lactam 5-C)
- MIC [1]: 2 µg/mL (≈ 1.35 µM)
- MIC [2]: 2 µg/mL (≈ 1.35 µM)
- MIC [4]: 2 µg/mL (≈ 1.35 µM)
- MIC [5]: 2 µg/mL (≈ 1.35 µM)
- MIC [10]: >128 µg/mL
- MIC [12]: 1 µg/mL (≈ 0.673 µM)
- MIC ([14]; PAO1): 16 µg/mL (≈ 10.8 µM)
- MIC [15]: 4 µg/mL (≈ 2.69 µM)
- MIC [16]: 4 µg/mL (≈ 2.69 µM)
